Test results published in ChEMBL document CHEMBL1136555, “Antitumour benzothiazoles. Part 20: 3'-cyano and 3'-alkynyl-substituted 2-(4'-aminophenyl)benzothiazoles as new potent and selective analogues” (Bioorg Med Chem Lett, 2003).
pIC50: −log10 of the molar value. Values belong to the compound of their own block, whether it stands above or below them.

Columns and labels:
MDA-MB-468 [1] = test: (§1) Inhibitory activity of compound against breast cancer cell line MDA 468, following 72 hr treatment; format: functional; settings: Homo sapiens, MDA-MB-468, 72 h
MCF7 [2] = test: (§2) Inhibitory activity of compound against breast cancer cell line MCF-7, following 72 hr treatment; format: functional; settings: Homo sapiens, MCF7, 72 h
NCI-H23 = test: Compound tested for growth inhibition of non-small cell lung cancer cell line NCI-H23; format: functional; settings: Homo sapiens
ACHN = test: Compound tested for growth inhibition of renal cancer cell line ACHN; format: functional; settings: Homo sapiens
CAKI-1 = test: Compound tested for growth inhibition of renal cancer cell line CAKI-1; format: functional; settings: Homo sapiens
MDA-MB-435 = test: Compound tested for growth inhibition of breast cancer cell line MDA-MB-435; format: functional; settings: Homo sapiens
SN12C = test: Compound tested for growth inhibition of renal cancer cell line SN12C; format: functional; settings: Homo sapiens
MDA-MB-231 = test: Compound tested for growth inhibition of breast cancer cell line MDA-MB-231/ATCC; format: functional; settings: Homo sapiens
OVCAR-5 = test: Compound tested for growth inhibition of ovarian cancer cell line OVCAR-5; format: functional; settings: Homo sapiens
TK-10 = test: Compound tested for growth inhibition of renal cancer cell line TK-10; format: functional; settings: Homo sapiens
NCI-H226 = test: Compound tested for growth inhibition of non-small cell lung cancer cell line NCI-H226; format: functional; settings: Homo sapiens
K562 = test: Compound tested for growth inhibition of leukemia cell line K-562; format: functional; settings: Homo sapiens
SNB-19 = test: Compound tested for growth inhibition of CNS cancer cell line SNB-19; format: functional; settings: Homo sapiens
786-0 = test: Compound tested for growth inhibition of renal cancer cell line 786-0; format: functional; settings: Homo sapiens
SF-539 = test: Compound tested for growth inhibition of CNS cancer cell line SF-539; format: functional; settings: Homo sapiens
IGROV-1 = test: Compound tested for growth inhibition of ovarian cancer cell line […]; format: functional; settings: Homo sapiens
T47D = test: Compound tested for growth inhibition of breast cancer cell line T-47-D; format: functional; settings: Homo sapiens
SW-620 = test: Compound tested for growth inhibition of colon cancer cell line SW-620; format: functional; settings: Homo sapiens
RPMI-8226 = test: Compound tested for growth inhibition of leukemia cell line RPMI-8226; format: functional; settings: Homo sapiens
OVCAR-8 = test: Compound tested for growth inhibition of ovarian cancer cell line OVCAR-8; format: functional; settings: Homo sapiens
U-251 = test: Compound tested for growth inhibition of CNS cancer cell line U251; format: functional; settings: Homo sapiens
UACC-62 = test: Compound tested for growth inhibition of melanoma cell line UACC-62; format: functional; settings: Homo sapiens
LOX IMVI = test: Compound tested for growth inhibition of melanoma cell line LOX IMVI; format: functional; settings: Homo sapiens
HOP-62 = test: Compound tested for growth inhibition of non-small cell lung cancer cell line HOP-62; format: functional; settings: Homo sapiens
UO-31 = test: Compound tested for growth inhibition of renal cancer cell line UO-31; format: functional; settings: Homo sapiens
A498 = test: Compound tested for growth inhibition of renal cancer cell line A498; format: functional; settings: Homo sapiens
NCI-H460 = test: Compound tested for growth inhibition of non-small cell lung cancer cell line NCI-H460; format: functional; settings: Homo sapiens
SNB-75 = test: Compound tested for growth inhibition of CNS cancer cell line SNB-75; format: functional; settings: Homo sapiens
HOP-92 = test: Compound tested for growth inhibition of non-small cell lung cancer cell line HOP-92; format: functional; settings: Homo sapiens
MOLT-4 = test: Compound tested for growth inhibition of leukemia cell line MOLT-4; format: functional; settings: Homo sapiens
HT-29 = test: Compound tested for growth inhibition of colon cancer cell line HT-29; format: functional; settings: Homo sapiens
OVCAR-3 = test: Compound tested for growth inhibition of ovarian cancer cell line OVCAR-3; format: functional; settings: Homo sapiens
RXF 393 = test: Compound tested for growth inhibition of renal cancer cell line RFX 393; format: functional; settings: Homo sapiens
UACC-257 = test: Compound tested for growth inhibition of melanoma cell line UACC-257; format: functional; settings: Homo sapiens
NCI-H322M = test: Compound tested for growth inhibition of non-small cell lung cancer cell line NCI-H322M; format: functional; settings: Homo sapiens
SF-295 = test: Compound tested for growth inhibition of CNS cancer cell line SF-295; format: functional; settings: Homo sapiens
Malme-3M = test: Compound tested for growth inhibition of melanoma cell line MALME-3M; format: functional; settings: Homo sapiens
NCI/ADR-RES = test: Compound tested for growth inhibition of breast cancer cell line NCI/ADR-RES; format: functional; settings: Homo sapiens
A549 = test: Compound tested for growth inhibition of non-small cell lung cancer cell line A549/ATCC; format: functional; settings: Homo sapiens
SK-MEL-28 = test: Compound tested for growth inhibition of melanoma cell line SK-MEL-28; format: functional; settings: Homo sapiens
HCC 2998 = test: Compound tested for growth inhibition of colon cancer cell line HCC2998; format: functional; settings: Homo sapiens
NCI-H522 = test: Compound tested for growth inhibition of non-small cell lung cancer cell line NCI-H522; format: functional; settings: Homo sapiens
MDA-N = test: Compound tested for growth inhibition of breast cancer cell line MDA-N; format: functional; settings: Homo sapiens
MCF7 [3] = test: Compound tested for growth inhibition of breast cancer cell line MCF-7; format: functional; settings: Homo sapiens
HCT-116 = test: Compound tested for growth inhibition of colon cancer cell line HCT116; format: functional; settings: Homo sapiens
BT-549 = test: Compound tested for growth inhibition of breast cancer cell line BT-549; format: functional; settings: Homo sapiens
M14 = test: Compound tested for growth inhibition of melanoma cell line M14; format: functional; settings: Homo sapiens
SK-MEL-2 = test: Compound tested for growth inhibition of melanoma cell line SK-MEL-2; format: functional; settings: Homo sapiens
PC-3 = test: Compound tested for growth inhibition of prostate cancer cell line PC-3; format: functional; settings: Homo sapiens
OVCAR-4 = test: Compound tested for growth inhibition of ovarian cancer cell line OVCAR-4; format: functional; settings: Homo sapiens
DU-145 = test: Compound tested for growth inhibition of prostate cancer cell line DU-145; format: functional; settings: Homo sapiens
HCT-15 = test: Compound tested for growth inhibition of colon cancer cell line HCT-15; format: functional; settings: Homo sapiens
SK-OV-3 = test: Compound tested for growth inhibition of ovarian cancer cell line SK-OV-3; format: functional; settings: Homo sapiens
Hs-578T = test: Compound tested for growth inhibition of breast cancer cell line HS 578T; format: functional; settings: Homo sapiens
SK-MEL-5 = test: Compound tested for growth inhibition of melanoma cell line SK-MEL-5; format: functional; settings: Homo sapiens
SF-268 = test: Compound tested for growth inhibition of CNS cancer cell line SF-268; format: functional; settings: Homo sapiens
KM12 = test: Compound tested for growth inhibition of colon cancer cell line KM12; format: functional; settings: Homo sapiens
MDA-MB-468 [4] = test: as §1; format: functional, cell-based; settings: Homo sapiens, MDA-MB-468, 72 h
MCF7 [5] = test: as §2; format: functional, cell-based; settings: Homo sapiens, MCF7, 72 h

GI50 (MDA-MB-468 [1]): 15 nM
GI50 (MCF7 [2]): 49 nM
Compound: C#Cc1cc(-c2nc3ccccc3s2)ccc1N

GI50 (NCI-H23): < 10 nM
GI50 (ACHN): 759 nM
GI50 (MDA-MB-435): > 100000 nM
GI50 (MDA-MB-231): 7410 nM
GI50 (OVCAR-5): 37.1 nM
GI50 (NCI-H226): 14500 nM
GI50 (K562): > 100000 nM
GI50 (786-0): 31600 nM
GI50 (T47D): 14.4 nM
GI50 (SW-620): > 100000 nM
GI50 (RPMI-8226): > 100000 nM
GI50 (OVCAR-8): > 100000 nM
GI50 (U-251): 8710 nM
GI50 (NCI-H460): < 10 nM
GI50 (MOLT-4): > 100000 nM
GI50 (HT-29): 1620 nM
GI50 (OVCAR-3): 28200 nM
GI50 (NCI-H322M): 11.5 nM
GI50 (A549): 214 nM
GI50 (SK-MEL-28): > 100000 nM
GI50 (MDA-MB-468 [1]): 7.8 nM
GI50 (HCC 2998): < 10 nM
GI50 (NCI-H522): 28200 nM
GI50 (MCF7 [3]): < 10 nM
GI50 (HCT-116): 15800 nM
GI50 (MCF7 [2]): 5.7 nM
GI50 (BT-549): 3800 nM
GI50 (SK-MEL-2): 13500 nM
GI50 (PC-3): 24000 nM
GI50 (OVCAR-4): 1380 nM
GI50 (DU-145): 51300 nM
GI50 (HCT-15): 389 nM
GI50 (SK-OV-3): 20900 nM
GI50 (SK-MEL-5): 537 nM
Compound: N#Cc1cc(-c2nc3cc(F)ccc3s2)ccc1N
GI50 (CAKI-1): > 100000 nM
GI50 (SN12C): > 100000 nM
GI50 (TK-10): 30.2 nM
GI50 (SNB-19): 9120 nM
GI50 (SF-539): 8710 nM
GI50 (IGROV-1): < 10 nM
GI50 (UACC-62): 6610 nM
GI50 (LOX IMVI): > 100000 nM
GI50 (HOP-62): 17000 nM
GI50 (UO-31): 49000 nM
GI50 (A498): 8510 nM
GI50 (SNB-75): 832 nM
GI50 (HOP-92): 2630 nM
GI50 (RXF 393): 2400 nM
GI50 (UACC-257): > 100000 nM
GI50 (SF-295): 16600 nM
GI50 (Malme-3M): > 100000 nM
GI50 (NCI/ADR-RES): > 100000 nM
GI50 (MDA-N): > 100000 nM
GI50 (M14): 25700 nM
GI50 (Hs-578T): 8510 nM
GI50 (SF-268): 12000 nM
GI50 (KM12): 97.7 nM

GI50 (MDA-MB-468 [1]): 210 nM
GI50 (MCF7 [2]): 160 nM
Compound: C[Si](C)(C)C#Cc1cc(-c2nc3cc(F)ccc3s2)ccc1N

GI50 (MDA-MB-468 [1]): 340 nM
GI50 (MCF7 [2]): 580 nM
Compound: N#Cc1cc(-c2nc3ccccc3s2)ccc1N

GI50 (MDA-MB-468 [1]): 560 nM
GI50 (MCF7 [2]): 710 nM
Compound: C[Si](C)(C)C#Cc1cc(-c2nc3ccccc3s2)ccc1N

GI50 (MDA-MB-468 [1]): 80 nM
GI50 (MCF7 [2]): 180 nM
Compound: N#Cc1cc(-c2nc3c(F)cccc3s2)ccc1N

GI50 (MDA-MB-468 [1]): 320 nM
GI50 (MCF7 [2]): 820 nM
Compound: N#Cc1cc(-c2nc3ccc(F)cc3s2)ccc1N

GI50 (MDA-MB-468 [1]): 30 nM
GI50 (MCF7 [2]): 110 nM
Compound: C#Cc1cc(-c2nc3c(F)cccc3s2)ccc1N

GI50 (MDA-MB-468 [1]): 6.8 nM
GI50 (MCF7 [2]): 11 nM
Compound: C#Cc1cc(-c2nc3cc(F)ccc3s2)ccc1N

GI50 (MDA-MB-468 [1]): 23 nM
GI50 (MCF7 [2]): 110 nM
Compound: C#Cc1cc(-c2nc3ccc(F)cc3s2)ccc1N

GI50 (MDA-MB-468 [1]): 400 nM
GI50 (MCF7 [2]): 680 nM
Compound: C[Si](C)(C)C#Cc1cc(-c2nc3ccc(F)cc3s2)ccc1N

GI50 (MDA-MB-468 [1]): 230 nM
GI50 (MCF7 [2]): 520 nM
Compound: C[Si](C)(C)C#Cc1cc(-c2nc3c(F)cccc3s2)ccc1N

pIC50 (MDA-MB-468 [4]): > 9.00
pIC50 (MCF7 [5]): > 9.00
Compound: Nc1ccc(-c2nc3ccccc3s2)cc1
